Laboratory results taken from paper PMC7278979, “Ellagic Acid Controls Cell Proliferation and Induces Apoptosis in Breast Cancer Cells via Inhibition of Cyclin-Dependent Kinase 6” (International Journal of Molecular Sciences, 2020).

Columns and labels:
CDK6 [1] = target: T1, CDK6 (Homo sapiens, UniProt Q00534); assay: Isothermal titration calorimetry of EA with CDK6; settings: ITC, 25 °C, one binding site model; read-out: Ka (binding constant) (converted)
T1 construct: The 981-bp coding region (326 amino acids) was amplified by PCR from plasmid pcDNA containing the CDK6 gene; His-tag; made in house; host or cells: E. coli BL21 (codon+), pET28a+ (NcoI/XhoI)
Experimental: ITC measurements were carried out at 25 °C using a VP-ITC microcalorimeter (MicroCal, Inc, GE, MicroCal, USA). The sample cell was filled with 15–20 µM CDK6 and 500 µM EA solution was filled in the syringe. An automated titration was carried out with (including a first false injection of 2 μL) a successive injection of 10 μL EA solution into a CDK6 sample cell at a 260 s interval with 320 rpm stirring speed. For analysis, the heat of dilution of EA in the sample buffer was subtracted from the titration data. MicroCal Origin 8.0 was used to analyze the stoichiometry of binding (n), enthalpy change (ΔH), an association constant (Ka).

MDA-MB-231 cells [2] = assay: Apoptosis assay (Annexin-V staining, flow cytometry); assay type: cell-based, human; settings: MDA-MB-231, IC50 concentration of EA, 48 h
MDA-MB-231 cells [3] = assay: Colony formation assay; assay type: cell-based, human; settings: MDA-MB-231, IC50 concentration of EA, 10–12 days, vs vehicle control
Experimental: (§1) To perceive the effect of EA treatment on the colonogenic potential of selected cell lines colony formation studies were performed as described previously. Briefly, ~1500–2000 (MCF-7/MDA-MB-231 cells) cells/well were seeded (in triplicates) in each well of a 6-well cell culture plate. The cells were grown in complete cell growth medium for 48 h and incubated with respective IC50 concentrations of EA for 10–12 days, (at 37 °C, in a 5% CO2 incubator). On the other hand, the control cells were incubated with vehicle control (DMSO) under similar experimental conditions. After 10–12 days, the colonies of cells were fixed with 100% methanol and subsequently stained using a 0.4% crystal violet solution (prepared in 25% methanol. Finally, the colonies obtained after staining were photographed, quantified, plotted, and analyzed by comparing with vehicle control.

MCF-7 cells [4] = assay: Colony formation assay; assay type: cell-based, human; settings: MCF-7, IC50 concentration of EA, 10–12 days, vs vehicle control
Experimental: as §1

MCF-7 cells [5] = assay: Apoptosis assay (Annexin-V staining, flow cytometry); assay type: cell-based, human; settings: MCF-7, IC50 concentration of EA, 48 h
CDK6 [6] = target: T1, CDK6; assay: Fluorescence binding (quenching) study with recombinant CDK6; settings: for Ksv: Stern-Volmer plot; for ΔG°: van 't Hoff equation
Experimental: To study the binding affinity of EA with the recombinant CDK6, a fluorescence binding study was performed. CDK6 was titrated with the EA and corresponding emission spectra were recorded in the range of 300–400 nm after carrying out excitation at 280 nm. The inner filter effect was corrected for the obtained intensities. Fluorescence emission spectra were analyzed by the Stern-Volmer equation to find Stern-Volmer constant (Ksv) and modified Stern-Volmer equation to estimate the binding constant (K) and the number of binding sites (n). Other binding features were estimated by our previously described protocol.
With each reaction, changes in enthalpy and entropy are associated, which are evidence of the type of reaction taking place. Equation (1) (“van ’t Hoff equation”) was employed to calculate the thermodynamic parameters associated with this binding, (1) ΔG°=−RTLnK=ΔH°−TΔS°

MDA-MB-231 cells [7] = assay: Cell viability MTT assay; assay type: cell-based; settings: Homo sapiens, MDA-MB-231, 48 h (Figure 8 legend; method says 72 h), mean ± SD n = 3
Experimental: (§2) Cell viabilities of cancer cells with or without EA were evaluated using MTT assay. Briefly, the selected cells (MCF-7 and MDA-MB-231) were seeded in a 96-well (5000–6000 cells/well) culture plate. Overnight grown cells were incubated with EA (0–250 μM) for 72 h in a CO2 incubator, at 37 °C. After a stipulated time of treatment, 20 µL of MTT (from 5 mg/mL stock solution in PBS, pH 7.4) was added to each treatment well of 96-well plate, and plates with MTT solution were incubated additionally for 4–5 h, in the CO2 incubator. Lastly, the formazan were solubilized by adding 100 µL of DMSO to each well. The absorbance (A) of the dissolved purple reaction solution was measured at 570 nm. Absorption readings were converted into percent cell viability and used to estimate 50% inhibitory concentration (IC50) of EA for selected cancer cells.

MCF-7 cells [8] = assay: Cell viability MTT assay; assay type: cell-based; settings: Homo sapiens, MCF7, MCF-7, 48 h (Figure 8 legend; method says 72 h), mean ± SD n = 3
Experimental: as §2

CDK6 [9] = assay: CDK6 expression study (immunoblotting); assay type: cell-based, human; settings: EA-treated vs vehicle control, immunoblot
Experimental: The cell lysates of EA-treated/untreated MCF-7 and MDA-MB-231 cell lines were prepared using RIPA cell lysis buffer (Thermo Fisher Scientific (USA)) and total protein was isolated. The amount of protein was quantified by a BCA-protein estimation kit. Nearly, 50–60 μg of total protein was subjected for SDS-PAGE, and obtained bands were blotted to polyvinylidene fluoride membrane. The protein of interest was identified using respective primary antibodies and horseradish peroxidase (HRP) conjugated secondary IgG using the luminol method.

CDK6 [10] = target: T1, CDK6; assay: ATPase enzyme inhibition assay (malachite green); assay type: biochemical; settings: CDK6 1 µM, ATP 50 µM, 25 °C, 1 h, AAT Bioquest calculator
Experimental: ATPase assay was performed to see the CDK6 inhibitory activity of EA [57]. For a typical kinase reaction, freshly prepared ATP (50 µM) was incubated with CDK6 (1 µM) in a reaction volume of 100 μL and incubated at 25 °C for 1 h. Similar reactions were set up with the increasing concentration of EA. Malachite green (200 μL) was further added to the reaction mixture to stop the reaction followed by incubation of samples at room temperature for 20–25 min for the development of color. The absorbance of the final reaction product was measured spectrophotometrically at 620 nm.

[11] = van 't Hoff plot over 298, 301, 303 K (same value printed at each temperature)

T1 sequence (Q00534 whole entry): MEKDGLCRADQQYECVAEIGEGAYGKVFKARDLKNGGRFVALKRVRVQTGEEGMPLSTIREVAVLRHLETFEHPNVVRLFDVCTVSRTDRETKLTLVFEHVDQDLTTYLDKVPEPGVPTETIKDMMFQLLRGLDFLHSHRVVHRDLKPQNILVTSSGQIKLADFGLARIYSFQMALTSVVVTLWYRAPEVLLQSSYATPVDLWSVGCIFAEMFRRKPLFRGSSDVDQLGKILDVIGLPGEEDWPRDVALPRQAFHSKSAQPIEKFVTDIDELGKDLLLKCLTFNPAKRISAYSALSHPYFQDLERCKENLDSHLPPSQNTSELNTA

O=c1oc2c(O)c(O)cc3c(=O)oc4c(O)c(O)cc1c4c23 [EA, ellagic acid]
Kd (CDK6 [1]): 39.7 µM
Annexin-V positive cells (apoptosis) (MDA-MB-231 cells [2]): 27.9%
number of colonies (MDA-MB-231 cells [3]): decreases the number of colonies significantly
number of colonies (MCF-7 cells [4]): decreases the number of colonies significantly
Annexin-V positive cells (apoptosis) (MCF-7 cells [5]): 23.3%
Kq (bimolecular quenching rate constant) (CDK6 [6]; 298 K): 5.8 10^12 M^−1s^−1
TΔS° (CDK6 [6]; 298 K): 354 kJ/mol
Kq (bimolecular quenching rate constant) (CDK6 [6]; 301 K): 14.2 10^12 M^−1s^−1
TΔS° (CDK6 [6]; 301 K): 357.5 kJ/mol
Kq (bimolecular quenching rate constant) (CDK6 [6]; 303 K): 19.8 10^12 M^−1s^−1
TΔS° (CDK6 [6]; 303 K): 359.9 kJ/mol
Ksv (CDK6 [6]; 298 K): 5.8 10^4 M^−1
Ksv (CDK6 [6]; 301 K): 14.2 10^4 M^−1
Ksv (CDK6 [6]; 303 K): 19.8 10^4 M^−1
binding constant (K) (CDK6 [6]; fluorescence quenching, modified Stern-Volmer, 303 K): 2.6e+07 M⁻¹
Kd (CDK6 [6]; fluorescence quenching, modified Stern-Volmer, 303 K, read-out: binding constant (K)): 0.1 µM
n (number of binding sites) (CDK6 [6]; modified Stern-Volmer, 298 K): 1.32
Kd (CDK6 [6]; modified Stern-Volmer, 298 K, read-out: K (binding constant) (converted)): 0.345 µM
n (number of binding sites) (CDK6 [6]; modified Stern-Volmer, 301 K): 1.16
Kd (CDK6 [6]; modified Stern-Volmer, 301 K, read-out: K (binding constant) (converted)): 0.154 µM
n (number of binding sites) (CDK6 [6]; modified Stern-Volmer, 303 K): 1.41
Kd (CDK6 [6]; modified Stern-Volmer, 303 K, read-out: K (binding constant) (converted)): 0.0385 µM
ΔG° (CDK6 [6]; 298 K): -36.5 kJ/mol
ΔG° (CDK6 [6]; 301 K): -40.1 kJ/mol
ΔG° (CDK6 [6]; 303 K): -42.51 kJ/mol
ΔH° (CDK6 [6]; [11]): 317.422 kJ/mol
ΔS (CDK6 [6]; [11]): 283.9087 cal.mol^−1K^−1
IC50 (MDA-MB-231 cells [7]): 20.5 ± 1.22 µM
IC50 (MCF-7 cells [8]): 29.1 ± 1.15 µM
expression of CDK6 (CDK6 [9]; MCF-7 cells): decreases the expression of CDK6
expression of CDK6 (CDK6 [9]; MDA-MB-231 cells): decreases the expression of CDK6
IC50 (CDK6 [10]): 3.05 µM
